One series has as its target T1, human sEH (Homo sapiens, UniProt P34913).
T1 sequence (P34913 1-555): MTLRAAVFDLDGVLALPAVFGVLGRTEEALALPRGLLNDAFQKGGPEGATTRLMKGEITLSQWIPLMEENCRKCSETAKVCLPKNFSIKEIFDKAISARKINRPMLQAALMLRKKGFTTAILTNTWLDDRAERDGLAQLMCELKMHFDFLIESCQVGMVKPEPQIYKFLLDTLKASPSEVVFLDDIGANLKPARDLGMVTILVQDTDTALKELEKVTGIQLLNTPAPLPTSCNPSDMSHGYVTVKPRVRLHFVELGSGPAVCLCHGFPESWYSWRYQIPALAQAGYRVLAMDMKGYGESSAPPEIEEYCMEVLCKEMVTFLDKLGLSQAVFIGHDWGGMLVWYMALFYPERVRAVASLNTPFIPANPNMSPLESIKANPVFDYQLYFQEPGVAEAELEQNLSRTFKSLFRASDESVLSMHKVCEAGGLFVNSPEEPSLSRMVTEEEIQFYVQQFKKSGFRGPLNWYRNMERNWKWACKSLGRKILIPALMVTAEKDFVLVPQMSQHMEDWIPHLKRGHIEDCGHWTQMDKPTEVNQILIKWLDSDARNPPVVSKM
Put plainly: Determination of inhibitory potency. The class given is biochemical. Particulars: read-out: Human sEH IC50; recombinant affinity purified human sEH, means of three separate experiments.

The nature of series [1]: Solubility by turbidimetric assay in sodium phosphate buffer. Format: physicochemical. Particulars: sodium phosphate buffer pH 7.4, 0.1 M, 1% DMSO.

Converted amounts (≈) assume the structure as drawn.

`CC1(C)C2CCC1(C)C(NC(=O)Nc1cccc(F)c1)C2` (racemic) [L/D-3a, rac-1-(3-fluorophenyl)-3-(1,7,7-trimethylbicyclo[2.2.1]heptan-2-yl)urea]: on human sEH, the 50% inhibitory concentration (IC50) turned out to be 1.5 nM. This molecule returned a Solubility in series [1] of 50 ± 10 µM (≈ 14.5 µg/mL).
Regarding `CC1(C)C2CCC1(C)C(NC(=O)Nc1ccc(F)cc1)C2` (racemic) [L/D-3b, rac-1-(4-fluorophenyl)-3-(1,7,7-trimethylbicyclo[2.2.1]heptan-2-yl)urea], the IC50 on human sEH turned out to be 5.1 nM. Besides, the Solubility in series [1] is 65 ± 15 µM (≈ 18.9 µg/mL).
On the same counts, the results for `CC1(C)C2CCC1(C)C(NC(=O)Nc1ccccc1Cl)C2` (racemic) [L/D-3c, rac-1-(2-chlorophenyl)-3-(1,7,7-trimethylbicyclo[2.2.1]heptan-2-yl)urea] are 85 nM and 30 ± 10 µM (≈ 9.21 µg/mL).
With `CC1(C)C2CCC1(C)C(NC(=O)Nc1cccc(Cl)c1)C2` (racemic) [L/D-3d, rac-1-(3-chlorophenyl)-3-(1,7,7-trimethylbicyclo[2.2.1]heptan-2-yl)urea], on human sEH, the IC50 came to 1.6 nM. In series [1], this molecule came in with a Solubility of 35 ± 15 µM (≈ 10.7 µg/mL).
On the same counts, the results for `CC1(C)C2CCC1(C)C(NC(=S)Nc1cccc(F)c1)C2` (racemic) [L/D-3e, rac-1-(3-fluorophenyl)-3-(1,7,7-trimethylbicyclo[2.2.1]heptan-2-yl)thiourea] are 126 nM and 10 ± 5 µM (≈ 3.06 µg/mL).
On the same counts, the results for `CC1(C)C2CCC1(C)C(NC(=S)Nc1ccc(F)cc1)C2` (racemic) [L/D-3f, rac-1-(4-fluorophenyl)-3-(1,7,7-trimethylbicyclo[2.2.1]heptan-2-yl)thiourea] are 33.5 nM and 15 ± 5 µM (≈ 4.6 µg/mL).
In the case of `CC1(C)C2CCC1(C)C(NC(=O)Nc1cccc(F)c1)C2` [Compound D-3a, D-1-(3-fluorophenyl)-3-(1,7,7-trimethylbicyclo[2.2.1]heptan-2-yl)urea], on human sEH, the IC50 stood at 2.8 nM. In addition, in series [1], the Solubility was 50 ± 10 µM (≈ 14.5 µg/mL).
The matching figures for `CC1(C)C2CCC1(C)C(NC(=O)Nc1ccc(F)cc1)C2` [Compound D-3b, D-1-(4-fluorophenyl)-3-(1,7,7-trimethylbicyclo[2.2.1]heptan-2-yl)urea]: 8.2 nM and 65 ± 15 µM (≈ 18.9 µg/mL).
The matching figures for `CC1(C)C2CCC1(C)C(NC(=O)Nc1ccccc1Cl)C2` [Compound D-3c, D-1-(2-chlorophenyl)-3-(1,7,7-trimethylbicyclo[2.2.1]heptan-2-yl)urea]: 69.6 nM and 30 ± 10 µM (≈ 9.21 µg/mL).
`CC1(C)C2CCC1(C)C(NC(=O)Nc1cccc(Cl)c1)C2` [Compound D-3d, D-1-(3-chlorophenyl)-3-(1,7,7-trimethylbicyclo[2.2.1]heptan-2-yl)urea]: the IC50 at human sEH was determined as 1.7 nM. This molecule also displayed a Solubility in series [1] of 35 ± 15 µM (≈ 10.7 µg/mL).
The matching figures for `CC1(C)C2CCC1(C)C(NC(=S)Nc1cccc(F)c1)C2` [Compound D-3e, D-1-(3-fluorophenyl)-3-(1,7,7-trimethylbicyclo[2.2.1]heptan-2-yl)thiourea]: 176 nM and 10 ± 5 µM (≈ 3.06 µg/mL).
The matching figures for `CC1(C)C2CCC1(C)C(NC(=S)Nc1ccc(F)cc1)C2` [Compound D-3f, D-1-(4-fluorophenyl)-3-(1,7,7-trimethylbicyclo[2.2.1]heptan-2-yl)thiourea]: 38.3 nM and 15 ± 5 µM (≈ 4.6 µg/mL).
Consider `CC12CCC(C1)C(C)(C)C2NC(=O)Nc1cccc(F)c1` [Compound D-6a, D-1-(3-fluorophenyl)-3-(1,3,3-trimethylbicyclo[2.2.1]heptan-2-yl)urea], for which the IC50 at human sEH was found to be 230 nM. Besides, the Solubility in series [1] came out at 45 ± 10 µM (≈ 13.1 µg/mL).
On the same counts, the results for `CC12CCC(C1)C(C)(C)C2NC(=O)Nc1ccc(F)cc1` [Compound D-6b, D-1-(4-fluorophenyl)-3-(1,3,3-trimethylbicyclo[2.2.1]heptan-2-yl)urea] are 367 nM and 65 ± 15 µM (≈ 18.9 µg/mL).
On the same counts, the results for `CC12CCC(C1)C(C)(C)C2NC(=O)Nc1ccccc1Cl` [Compound D-6c, D-1-(2-chlorophenyl)-3-(1,3,3-trimethylbicyclo[2.2.1]heptan-2-yl)urea] are 4810 nM and 40 ± 10 µM (≈ 12.3 µg/mL).
With `CC12CCC(C1)C(C)(C)C2NC(=O)Nc1cccc(Cl)c1` [Compound D-6d, D-1-(3-chlorophenyl)-3-(1,3,3-trimethylbicyclo[2.2.1]heptan-2-yl)urea], at human sEH, the IC50 was found to be 111 nM. The same molecule came in with a Solubility in series [1] of 40 ± 10 µM (≈ 12.3 µg/mL).
Take `CC12CCC(C1)C(C)(C)C2NC(=S)Nc1cccc(F)c1` [Compound D-6e, D-1-(3-fluorophenyl)-3-(1,3,3-trimethylbicyclo[2.2.1]heptan-2-yl)thiourea]: on human sEH, the half-inhibitory concentration (IC50) turned out to be 6480 nM. The molecule also had a Solubility in series [1] of 10 ± 5 µM (≈ 3.06 µg/mL).
On the same counts, the results for `CC12CCC(C1)C(C)(C)C2NC(=S)Nc1ccc(F)cc1` [Compound D-6f, D-1-(4-fluorophenyl)-3-(1,3,3-trimethylbicyclo[2.2.1]heptan-2-yl)thiourea] are 6080 nM and 15 ± 5 µM (≈ 4.6 µg/mL).
The matching figures for `CC1(C)C2CCC1(C)C(NC(=O)Nc1cccc(F)c1)C2` [Compound L-3a, L-1-(3-fluorophenyl)-3-(1,7,7-trimethylbicyclo[2.2.1]heptan-2-yl)urea]: 0.7 nM and 50 ± 10 µM (≈ 14.5 µg/mL).
The matching figures for `CC1(C)C2CCC1(C)C(NC(=O)Nc1ccc(F)cc1)C2` [Compound L-3b, L-1-(4-fluorophenyl)-3-(1,7,7-trimethylbicyclo[2.2.1]heptan-2-yl)urea]: 4 nM and 65 ± 15 µM (≈ 18.9 µg/mL).
On to `CC1(C)C2CCC1(C)C(NC(=O)Nc1ccccc1Cl)C2` [Compound L-3c, L-1-(2-chlorophenyl)-3-(1,7,7-trimethylbicyclo[2.2.1]heptan-2-yl)urea], for which the IC50 at human sEH is 387 nM. In series [1], this molecule came in with a Solubility of 30 ± 10 µM (≈ 9.21 µg/mL).
On the same counts, the results for `CC1(C)C2CCC1(C)C(NC(=O)Nc1cccc(Cl)c1)C2` [Compound L-3d, L-1-(3-chlorophenyl)-3-(1,7,7-trimethylbicyclo[2.2.1]heptan-2-yl)urea] are 1.5 nM and 35 ± 15 µM (≈ 10.7 µg/mL).
Take `CC1(C)C2CCC1(C)C(NC(=S)Nc1cccc(F)c1)C2` [Compound L-3e, L-1-(3-fluorophenyl)-3-(1,7,7-trimethylbicyclo[2.2.1]heptan-2-yl)thiourea]: on human sEH, the IC50 was found to be 56.1 nM. Also, the Solubility in series [1] stood at 10 ± 5 µM (≈ 3.06 µg/mL).
Turning to `CC1(C)C2CCC1(C)C(NC(=S)Nc1ccc(F)cc1)C2` [Compound L-3f, L-1-(4-fluorophenyl)-3-(1,7,7-trimethylbicyclo[2.2.1]heptan-2-yl)thiourea], on human sEH, the IC50 was determined as 31 nM. For the same molecule, in series [1], the Solubility was determined as 15 ± 5 µM (≈ 4.6 µg/mL).
The matching figures for `CC12CCC(C1)C(C)(C)C2NC(=O)Nc1cccc(F)c1` [Compound L-6a, L-1-(3-fluorophenyl)-3-(1,3,3-trimethylbicyclo[2.2.1]heptan-2-yl)urea]: 221 nM and 45 ± 10 µM (≈ 13.1 µg/mL).
As to `CC12CCC(C1)C(C)(C)C2NC(=O)Nc1ccc(F)cc1` [Compound L-6b, L-1-(4-fluorophenyl)-3-(1,3,3-trimethylbicyclo[2.2.1]heptan-2-yl)urea], at human sEH, the IC50 turned out to be 412 nM. Further, in series [1], the Solubility stood at 65 ± 15 µM (≈ 18.9 µg/mL).
On the same counts, the results for `CC12CCC(C1)C(C)(C)C2NC(=O)Nc1ccccc1Cl` [Compound L-6c, L-1-(2-chlorophenyl)-3-(1,3,3-trimethylbicyclo[2.2.1]heptan-2-yl)urea] are 1470 nM and 40 ± 10 µM (≈ 12.3 µg/mL).
On the same counts, the results for `CC12CCC(C1)C(C)(C)C2NC(=O)Nc1cccc(Cl)c1` [Compound L-6d, L-1-(3-chlorophenyl)-3-(1,3,3-trimethylbicyclo[2.2.1]heptan-2-yl)urea] are 166 nM and 40 ± 10 µM (≈ 12.3 µg/mL).
On the same counts, the results for `CC12CCC(C1)C(C)(C)C2NC(=S)Nc1cccc(F)c1` [Compound L-6e, L-1-(3-fluorophenyl)-3-(1,3,3-trimethylbicyclo[2.2.1]heptan-2-yl)thiourea] are 2980 nM and 10 ± 5 µM (≈ 3.06 µg/mL).
In the case of `CC12CCC(C1)C(C)(C)C2NC(=S)Nc1ccc(F)cc1` [Compound L-6f, L-1-(4-fluorophenyl)-3-(1,3,3-trimethylbicyclo[2.2.1]heptan-2-yl)thiourea], the concentration for half-maximal inhibition (IC50) at human sEH was found to be 4230 nM. The Solubility in series [1] is 15 ± 5 µM (≈ 4.6 µg/mL).

What is called IC50 is the concentration at which inhibition is half-maximal. The term Solubility denotes the concentration that dissolves in the medium under given conditions. Low readings indicate little dissolved substance, high ones much dissolved substance.

The values above are taken from article PMC10438916 (Results in chemistry, 2022).
